In US20260091138A1, “VARIANTS OF COAGULATION FACTOR VIII AND USES THEREOF” (Seattle Children’s Hospital d/b/a Seattle Children’s …, priority 2022, published 2026):
“Also recorded” adds a separate entry of the source. No end group written: not given here. Man6GlcNAc2 = high-mannose N-glycan (six mannose on two GlcNAc); GlcNAc = N-acetyl-glucosamine (single GlcNAc)

Legend:
[1] = test system: CD4+ T-cells in splenocytes isolated from FVIII-primed HA mice; assay: FVIII-specific CD4+ T-cell proliferation assay; format: cell-based, mouse; settings: for effect of peptide on CD4+ T-cell proliferation (in words): peptides 0.1 μM to 10 μM; for CD4+ T-cell proliferation: 96 hours, background subtracted
Protocol: (§1) CD4^+ T-cell Proliferation Assay. Mice with high titer anti-FVIII inhibitors were generated as described in the Supplemental Methods. Mouse splenocytes were isolated and stained with BD Horizon™ violet cell proliferation dye 450 (VPD450) (BD Biosciences). The labeled splenocytes were cultured and stimulated by adding FVIII as a positive proliferation control, Factor IX as a nonspecific antigen control, or peptides, either glycosylated or non-glycosylated, corresponding to site N2118. Mannan (0.1, 1, and 10 μM, respectively) was added in mannan inhibition experiments. After 96 hours, cells were stained with anti-mouse CD4 and Fixable Viability Stain (Fisher Scientific) and analyzed by flow cytometry (BDT LSR II analyzer (Fisher Scientific)). The enhancement of proliferation was calculated by subtracting the background levels in non-stimulated cells.
Generation of hemophilia A mice with high-titer inhibitors. Anti-FVIII inhibitor mice were generated by priming the mice with 3 units (U) of recombinant full-length FVIII in 200 uL PBS 3× a week for four weeks. Mice were then sacrificed on week 5 for spleen collection or boosted one-week prior to spleen collection. Blood was drawn via retro-orbital bleed on the day of sacrifice in the same manner as before in order to measure IgG titer via enzyme-linked immunosorbent assay (ELISA).

HA mice [2] = assay: FVIII functional activity (aPTT) and FVIII:Ag after hydrodynamic injection of BDD-FVIII and glycosylation variant plasmids; format: in vivo, mouse; settings: one-week post hydrodynamic plasmid injection, average ± SD
Protocol: (§2) Delivery of plasmids carrying BDD-FVIII and its glycosylation variants genes into HA mice. Male HA mice with a FVIII exon 16 knockout in an Sv129/BL6 mixed background between the ages of 8-14 weeks were used in all experiments. Mice were injected with liver-specific plasmids carrying BDD-FVIII and its glycosylation variants genes (FIG. 2) via hydrodynamic injection at a concentration of 25 μg/mL and a volume (ml) equal to 9% the body weight of the mouse (g). A second challenge (SC) of the same plasmids via hydrodynamic injection was performed on Day 86 to elicit robust secondary immune responses. Blood was collected by retro-orbital bleed in one-tenth volume of 3.8% sodium citrate periodically following plasmid injections.
FVIII antigen (FVIII:Ag) ELISA. FVIII:Ag levels in mouse plasma post hydrodynamic injection with FVIII plasmids were determined by ELISA using murine anti-FVIII antibody (GMA-8020, Green Mountain Antibody, Burlington, VT) and biotin-labeled murine anti-FVIII antibody (GMA-8015, Green Mountain Antibody, Burlington, VT).

HA mice [3] = assay: Total anti-FVIII IgG ELISA after plasmid-mediated gene transfer; format: in vivo, mouse
Protocol: as §2
Supplemental Methods. Measurement of total anti-FVIII IgG. 96 well flat bottom ELISA plates (Corning, Kennebunk, ME) were coated overnight at 4° C. with 0.44 U FVIII/well in coating buffer. Plates were then incubated with blocking buffer (1×Tris-Buffered Saline (TBS), 0.1% Tween-20, and 20% non-fat milk for 1 hour at 37° C. Plates were washed three times with wash buffer I 1×TBS and 0.1% Tween-20) between incubation steps. […] Concentrations of anti-FVIII IgG were evaluated by interpolation against the linear range on a standard curve created using mouse isotype control (Thermo Scientific) that was run in duplicate alongside samples on all plates.

HA mice [4] = assay: Anti-FVIII inhibitor titers by Bethesda assay after plasmid-mediated gene transfer; format: in vivo, mouse
Protocol: as §2

[5] = test system: CD4+ T-cells in splenocytes isolated from FVIII-primed HA mice; assay: Mannan inhibition in FVIII-specific T cell proliferation assay; format: cell-based, mouse
Protocol: as §1

Substance: D2108GKKWQTYRGN2118STGT2122 (DGKKWQTYRGN(Man6GlcNAc2)STGT; also: mannosylated; UniProt P00451 2127-2141, looked up, fragment) [2118MP3, mannosylated overlapping 15-mer Peptide 3]
- effect of peptide on CD4+ T-cell proliferation (in words) [1]: little to no proliferation

Substance: FIX: Factor IX as a nonspecific antigen control [reference compound]
- CD4+ T-cell proliferation response to protein antigen controls ([1]; increasing doses of FVIII, FIX as nonspecific antigen control): no response

Substance: K2111WQTYRGN2118STGTLMV2125 (KWQTYRGN(GlcNAc)STGTLMV; UniProt P00451 2130-2144, looked up, fragment) [2118GlcP1, Peptide 1 with a single GlcNAc residue at N2118]
- effect of peptide on CD4+ T-cell proliferation (in words) [1]: negligible effects

Substance: K2111WQTYRGN2118STGTLMV2125 (KWQTYRGNSTGTLMV; non-glycosylated; UniProt P00451 2130-2144, looked up, fragment) [2118NGP1, non-glycosylated 15-mer FVIII peptide centered around site N2118]
- effect of peptide on CD4+ T-cell proliferation (in words) [1]: negligible effects
- effect of peptide on CD4+ T-cell proliferation (in words) ([1]; listed as NGP1): negligible effects; also recorded: nearly no proliferation

Substance: K2111WQTYRGN2118STGTLMV2125 [2118MP1]
- CD4+ T-cell proliferation ([1]; peptide 10 μM): 4.2±1.3%
- effect of peptide on CD4+ T-cell proliferation (in words) ([1]; listed as MP1): increased proliferation levels; also recorded: Enhanced proliferation

Substance: N2118Q: BDD-FVIII plasmid variant with N2118Q mutation in the C1 domain eliminating the 2118 glycosylation site (SEQ ID NO: 23)
- FVIII functional activity levels in treated mouse plasma (average activity) (HA mice [2]): 223±77%
- anti-FVIII IgG level compared to the other three groups (HA mice [3]; peak around day 56, after first plasmid transfer): lower antibody levels; also recorded: lower IgG level
- drastic increase in anti-FVIII levels after the second challenge (HA mice [3]; second plasmid challenge on day 84, hydrodynamic injection): did not; also recorded: remained at a low level
- inhibitor responses to FVIII following first plasmid challenge compared to WT BDD-FVIII plasmid (HA mice [4]; after first plasmid challenge): trend of decreased inhibitor responses
- inhibitor titer / inhibitor responses post-second challenge (HA mice [4]; after second plasmid challenge, compared with WT BDD-FVIII): significantly lower inhibitor titer; also recorded: statistically significant lower inhibitor responses
- inhibitor titers (Bethesda assay) compared to other groups (HA mice [4]; day 56, after first plasmid transfer): lower inhibitor titers; also recorded: Low inhibitor titers

Substance: T2114YRGN2118STGTLMVFFG2128 (TYRGN(Man6GlcNAc2)STGTLMVFFG; also: mannosylated; UniProt P00451 2133-2147, looked up, fragment) [2118MP2, mannosylated overlapping 15-mer Peptide 2]
- CD4+ T-cell proliferation ([1]; peptide 1 μM): 2.9±0.6%
- CD4+ T-cell proliferation ([1]; peptide 10 μM): 5.5±2.0%
- effect of peptide on CD4+ T-cell proliferation (in words) ([1]; listed as MP2): Enhanced proliferation; also recorded: higher proliferation compared to MP1

Substance: T2114YRGN2118STGTLMVFFG2128 (TYRGNSTGTLMVFFG; non-glycosylated; UniProt P00451 2133-2147, looked up, fragment) [2118NGP2, non-glycosylated counterpart of 2118MP2]
- effect of peptide on CD4+ T-cell proliferation (in words) [1]: nearly no proliferation

Substance: mannan
- inhibition of T cell proliferation by mannan ([5]; in response to 0.1 U/ml FVIII): only partially inhibited
- inhibition of T cell proliferation by mannan ([5]; in response to 1 U/ml or 10 U/ml FVIII): no inhibition
- inhibition of T cell proliferation by mannan ([5]; in response to MP1 at 0.1 and 1 μM): inhibited
- inhibition of T cell proliferation by mannan ([5]; in response to all three concentrations of 2118MP1): inhibited
